Experimental data published in BindingDB's records for doi:10.1021/jm00106a035 (University of Maryland, 1991).

Tests used:
[1] = In vitro inhibitory activity towards [3H]cocaine binding to rat striatal tissue
[2] = as above; remark: listed apart in the source

SMILES: COC(=O)C1C2CC[C@H](C[C@@H]1OC(=O)Nc1ccccc1)N2C (stereo not given in full)
- IC50 [1]: 5600 nM

SMILES: COC(=O)C1C2CC[C@H](C[C@@H]1OC(=O)Nc1cccc(N)c1)N2C (stereo not given in full)
- IC50 [1]: 2070 nM

SMILES: COC(=O)C1C2CC[C@H](C[C@@H]1OC(=O)Nc1ccc([N+](=O)[O-])cc1)N2C (stereo not given in full)
- IC50 [1]: 1090 nM

SMILES: COC(=O)C1C2CC[C@H](C[C@@H]1OC(=O)Nc1cccc([N+](=O)[O-])c1)N2C (stereo not given in full)
- IC50 [1]: 37 nM

SMILES: COC(=O)[C@H]1[C@@H](OC(=O)c2ccccc2)C[C@@H]2CC[C@H]1N2C [Cocaine (-)]
- IC50 [2]: 65 nM
